Legend:
[1] = The drug is tested on Bifidobacterium longum subsp. Infantis strain: CCUG52486 for biotransformation. The drug concentrations were measured before and after a 12-h incubation by liquid-chromatography-coupled mass spectrometry (LC–MS); details: 2 µM
[2] = bacteroides thetaiotaomicron, 12 h, 2 µM
Description: The drug is tested on Bacteroides thetaiotaomicron strain: 3731 for biotransformation. The drug concentrations were measured before and after a 12-h incubation by liquid-chromatography-coupled mass spectrometry (LC–MS)

[3] = The drug is tested on Enterococcus faecalis strain: V583 for biotransformation. The drug concentrations were measured before and after a 12-h incubation by liquid-chromatography-coupled mass spectrometry (LC–MS); details: 2 µM
[4] = The drug is tested on Bifidobacterium ruminantium strain: fecal isolate for biotransformation. The drug concentrations were measured before and after a 12-h incubation by liquid-chromatography-coupled mass spectrometry (LC–MS); details: 2 µM
[5] = The drug is tested on Blautia luti strain: DSM14534 for biotransformation. The drug concentrations were measured before and after a 12-h incubation by liquid-chromatography-coupled mass spectrometry (LC–MS); type: ADME; design: dose 2 uM, timepoint 0 vs 12 hours; details: 2 µM
[6] = bacteroides stercoris, 12 h, 2 µM
Description: The drug is tested on Bacteroides stercoris strain: ATCC43183 for biotransformation. The drug concentrations were measured before and after a 12-h incubation by liquid-chromatography-coupled mass spectrometry (LC–MS)

[7] = The drug is tested on Bacteroides caccae strain: ATCC43185 for biotransformation. The drug concentrations were measured before and after a 12-h incubation by liquid-chromatography-coupled mass spectrometry (LC–MS); details: 2 µM
[8] = The drug is tested on Enterobacter cancerogenus strain: ATCC35316 for biotransformation. The drug concentrations were measured before and after a 12-h incubation by liquid-chromatography-coupled mass spectrometry (LC–MS); details: 2 µM
[9] = The drug is tested on Eubacterium ventriosum strain: ATCC27560 for biotransformation. The drug concentrations were measured before and after a 12-h incubation by liquid-chromatography-coupled mass spectrometry (LC–MS); type: ADME; design: dose 2 uM, timepoint 0 vs 12 hours; details: 2 µM
[10] = The drug is tested on Ruminococcus torques strain: ATCC27756 for biotransformation. The drug concentrations were measured before and after a 12-h incubation by liquid-chromatography-coupled mass spectrometry (LC–MS); type: ADME; design: dose 2 uM, timepoint 0 vs 12 hours; details: 2 µM
[11] = The drug is tested on Bacteroides sp. WH2 strain: WH2 for biotransformation. The drug concentrations were measured before and after a 12-h incubation by liquid-chromatography-coupled mass spectrometry (LC–MS); details: bacteroides sp. wh2, 12 h, 2 µM
[12] = The drug is tested on Clostridium scindens strain: ATCC35704 for biotransformation. The drug concentrations were measured before and after a 12-h incubation by liquid-chromatography-coupled mass spectrometry (LC–MS); details: 2 µM
[13] = segatella copri, 12 h, 2 µM
Description: The drug is tested on Prevotella copri strain: DSM18205 for biotransformation. The drug concentrations were measured before and after a 12-h incubation by liquid-chromatography-coupled mass spectrometry (LC–MS)

[14] = The drug is tested on Anaerococcus hydrogenalis strain: DSM7454 for biotransformation. The drug concentrations were measured before and after a 12-h incubation by liquid-chromatography-coupled mass spectrometry (LC–MS); details: 2 µM
[15] = bacteroides fragilis, 12 h, 2 µM
Description: The drug is tested on Bacteroides fragilis strain: 3397 (T10) for biotransformation. The drug concentrations were measured before and after a 12-h incubation by liquid-chromatography-coupled mass spectrometry (LC–MS)

[16] = The drug is tested on Bacteroides dorei strain: DSM17855 for biotransformation. The drug concentrations were measured before and after a 12-h incubation by liquid-chromatography-coupled mass spectrometry (LC–MS); details: phocaeicola dorei, 2 µM
[17] = parabacteroides distasonis, 12 h, 2 µM
Description: The drug is tested on Parabacteroides distasonis strain: ATCC8503 for biotransformation. The drug concentrations were measured before and after a 12-h incubation by liquid-chromatography-coupled mass spectrometry (LC–MS)

[18] = The drug is tested on Bacteroides fragilis strain: ATCC43859 for biotransformation. The drug concentrations were measured before and after a 12-h incubation by liquid-chromatography-coupled mass spectrometry (LC–MS); details: 2 µM
[19] = The drug is tested on Bacteroides fragilis strain: HMW610 for biotransformation. The drug concentrations were measured before and after a 12-h incubation by liquid-chromatography-coupled mass spectrometry (LC–MS); details: 2 µM
[20] = bacteroides fragilis, 12 h, 2 µM; remark: listed apart in the source
Description: The drug is tested on Bacteroides fragilis strain: NCTC 9343 for biotransformation. The drug concentrations were measured before and after a 12-h incubation by liquid-chromatography-coupled mass spectrometry (LC–MS)

Structure (SMILES) | Bacterial Biotransformation [1] | Bacterial Biotransformation [2] | Bacterial Biotransformation [3] | Bacterial Biotransformation [4] | Bacterial Biotransformation [5] | Bacterial Biotransformation [6] | Bacterial Biotransformation [7] | Bacterial Biotransformation [8] | Bacterial Biotransformation [9] | Bacterial Biotransformation [10] | Bacterial Biotransformation [11] | Bacterial Biotransformation [12] | Bacterial Biotransformation [13] | Bacterial Biotransformation [14] | Bacterial Biotransformation [15] | Bacterial Biotransformation [16] | Bacterial Biotransformation [17] | Bacterial Biotransformation [18] | Bacterial Biotransformation [19] | Bacterial Biotransformation [20]
OC(CCN1CCCCC1)(c1ccccc1)C1CC2C=CC1C2 (stereo not drawn) [BIPERIDEN] | Compound NOT metabolized | Compound NOT metabolized | Compound NOT metabolized | Compound NOT metabolized | Compound NOT metabolized | Compound NOT metabolized | Compound NOT metabolized | Compound NOT metabolized | Compound NOT metabolized | Compound NOT metabolized | Compound NOT metabolized | Compound NOT metabolized | Compound NOT metabolized | Compound NOT metabolized | Compound NOT metabolized | Compound NOT metabolized | – | – | – | –
c1ccc([C@H]2CN3CCSC3=N2)cc1 [LEVAMISOLE] | Compound NOT metabolized | Compound NOT metabolized | Compound NOT metabolized | Compound NOT metabolized | Compound NOT metabolized | Compound metabolized | Compound metabolized | – | Compound NOT metabolized | Compound NOT metabolized | Compound NOT metabolized | Compound metabolized | Compound NOT metabolized | Compound metabolized | Compound metabolized | Compound metabolized | Compound metabolized | Compound metabolized | Compound metabolized | Compound metabolized
CN(C)CCc1c[nH]c2ccc(CS(=O)(=O)N3CCCC3)cc12 [ALMOTRIPTAN] | Compound NOT metabolized | – | Compound NOT metabolized | – | Compound NOT metabolized | Compound NOT metabolized | Compound NOT metabolized | Compound NOT metabolized | Compound NOT metabolized | Compound NOT metabolized | Compound NOT metabolized | Compound NOT metabolized | Compound NOT metabolized | Compound NOT metabolized | Compound NOT metabolized | – | Compound NOT metabolized | – | – | Compound NOT metabolized
CCC1(c2ccc(N)cc2)CCC(=O)NC1=O (stereo not drawn) [AMINOGLUTETHIMIDE] | Compound NOT metabolized | Compound NOT metabolized | Compound NOT metabolized | – | Compound NOT metabolized | Compound NOT metabolized | Compound NOT metabolized | Compound NOT metabolized | Compound NOT metabolized | – | Compound NOT metabolized | Compound NOT metabolized | Compound NOT metabolized | Compound NOT metabolized | – | Compound NOT metabolized | – | – | Compound NOT metabolized | Compound NOT metabolized
CC(C)NCC(O)COc1ccc(CC(N)=O)cc1 (stereo not drawn) [ATENOLOL] | Compound NOT metabolized | – | Compound NOT metabolized | Compound NOT metabolized | Compound NOT metabolized | – | – | Compound NOT metabolized | Compound NOT metabolized | Compound NOT metabolized | Compound NOT metabolized | Compound NOT metabolized | Compound NOT metabolized | Compound NOT metabolized | – | – | Compound NOT metabolized | – | – | Compound NOT metabolized
CN(C)CCOC(c1ccc(Cl)cc1)c1ccccn1.O=C(O)/C=C\C(=O)O (stereo not drawn) [CARBINOXAMINE MALEATE] | Compound NOT metabolized | Compound NOT metabolized | Compound NOT metabolized | – | Compound NOT metabolized | Compound NOT metabolized | Compound NOT metabolized | Compound NOT metabolized | Compound NOT metabolized | Compound NOT metabolized | Compound NOT metabolized | Compound NOT metabolized | Compound NOT metabolized | Compound NOT metabolized | Compound NOT metabolized | Compound NOT metabolized | Compound NOT metabolized | – | – | Compound NOT metabolized
O=C(O)c1cc(/N=N/c2ccc(S(=O)(=O)Nc3ccccn3)cc2)ccc1O [SULFASALAZINE] | Compound metabolized | Compound metabolized | Compound metabolized | Compound metabolized | Compound metabolized | Compound metabolized | Compound metabolized | – | Compound metabolized | Compound metabolized | Compound metabolized | Compound metabolized | Compound metabolized | Compound metabolized | Compound metabolized | Compound metabolized | Compound metabolized | Compound metabolized | Compound metabolized | Compound metabolized
CC(=O)Nc1ccc(OC(C)=O)cc1 [DIACETAMATE] | Compound metabolized | Compound metabolized | Compound metabolized | Compound metabolized | Compound metabolized | Compound metabolized | Compound metabolized | – | Compound metabolized | Compound metabolized | Compound metabolized | Compound metabolized | Compound metabolized | Compound metabolized | Compound metabolized | Compound metabolized | Compound metabolized | Compound metabolized | Compound metabolized | Compound metabolized
O=P1(N(CCCl)CCCl)NCCCO1 (stereo not drawn) [CYCLOPHOSPHAMIDE ANHYDROUS] | – | Compound NOT metabolized | Compound NOT metabolized | Compound NOT metabolized | Compound NOT metabolized | Compound NOT metabolized | – | Compound NOT metabolized | – | Compound NOT metabolized | Compound NOT metabolized | – | Compound NOT metabolized | Compound NOT metabolized | Compound NOT metabolized | – | Compound NOT metabolized | – | – | Compound NOT metabolized
Nc1ccc(/N=N/c2ccccc2)c(N)n1 [PHENAZOPYRIDINE] | – | Compound metabolized | Compound metabolized | Compound metabolized | Compound metabolized | – | Compound metabolized | – | Compound metabolized | Compound metabolized | Compound metabolized | Compound metabolized | Compound metabolized | Compound metabolized | Compound metabolized | Compound metabolized | Compound metabolized | Compound metabolized | Compound metabolized | Compound metabolized
